Reference: patent EP4772500A1, “NOVEL ISOXAZOLE COMPOUND AS TM4SF5-SPECIFIC INHIBITOR AND USE THEREOF” (Seoul National University R&DB Foundation, priority 2023, dated 2025)

Legend:
[1] = tested on: TM4SF5-expressing cells (SNU449T7); assay: 2D cell growth/proliferation; format: cell-based, human; settings: 2D environment, drug every 24 hours (FIG. 3a)
Procedure: The drugs treated were the positive control drug TSAHC or the ST-1-025 isoxazole compound at the given concentrations. From the time of starting culture (0 day), (FIG. 3a) in the case of 2D culture, the number of cells was measured after treating with the drug every 24 hours, or (FIG. 3b) in a 3D environment, the proliferation of cells (spheres) was observed and photographed with an optical microscope on the 5th and 7th days after a single drug treatment at the start of culture.

[2] = tested on: SNU761-TM4SF5; assay: Western blotting of SLAMF7 expression, TM4SF5-expressing SNU761 cells; format: cell-based, human; settings: for expression level of SLAMF7 (WCL): whole-cell lysates, 24 hours (FIG. 15e-f)
Procedure: Cell extracts were obtained from cells grown to a density of 70-80% without any treatment, or from cells treated with vehicle DMSO or drugs at the given concentrations for 24 hours. For the extract of hepatocytes or liver cancer cells, a lysis buffer (150 mM NaCl, 1% NP-40, 50 mM Tris-HCl, 0.25% sodium deoxycholate, pH 7.4) including a protease inhibitor cocktail (GenDEPOT) was used. In addition, after washing animal liver tissue twice with PBS, SDS, Na3VO4, and protease inhibitor cocktails (GenDEPOT) were added to a lysis buffer [50 mM Tris-HCl, pH 7.4, 1% NP40, 0.25% sodium deoxycholate, 150 mM NaCl, 1 mM EDTA (based on 500 ml)], followed by treatment at 4°C for 15 minutes. After centrifugation at 13,000 rpm at 4°C for 30 minutes, only the supernatant was transferred to a new microcentrifuge tube. After quantification using BCA reagent (Thermo Scientific), a 4 × sample buffer [100% glycerol 4 ml, Tris-HCl, pH 6.8, 2.4 ml, SDS 0.8 g, Bromophenol blue 4 mg, betamercaptoethanol 0.4 ml, H2O 3.1 ml (based on 10 ml)] was added, followed by boiling at 100°C for 5 minutes. After performing SDS-PAGE electrophoresis with the above samples and transferring them to Nitrocellulose Membranes Protran™ nitrocellulose membranes (Whatman), pre-treatment was performed with 5% skim milk for 1 hour. After pre-treatment, primary antibodies of p-FAK(Y861) (SC-16663), p-FAK(Y577) (SC-16665), c-Src (SC-8056), STAT3 (SC-8019), p-AKT 1/2/3(S473) (SC-7985), STATS (SC-835), Laminin γ2 (SC-393225), COL1A1 (SC-28657), CCL5(RANTES) (SC-514019) CCL20(MIP-3α) (SC-517441), SIRT1 (SC-74465), ChREBP (SC-515922), SREBP1 (SC-366513), DGAT1 (SC-271934), DGAT2 (SC-293211), MICA/B (SC-137242), SLAMF7 (SC-390840), α-tublin (SC-5286), β-actin (SC-47778), FUCA (SC-365496) (the above from Santa Cruz Biotech, USA), p-FAK(Y397) (cat # 611723), FAK (cat # 610088), p27 (cat # 610242) (the above from BD Transduction, USA), p-FAK(Y925) (#3284) p-c-Src(Y416) (#2101), p-STAT3(Y705) (#9145), p70S6K1 (#9202), p-p70S6K1(T389) (#9205), p-STAT5(Y694) (#9314), ACC (#3676), FASN (#3189), CPT1A (#12252), p-ACC(S79) (#11818), HA (#3724), PD-L1 (#13684), PD-1 (#86163), p-ERK1/2(T202/Y204) (#9101s), ERK1/2 (#9102s) (the above from Cell Signaling Tech., USA), pS10p27(S10) (ab62364), human SLAMF6 (ab224201), TIGIT (ab233404), CD34 (ab81289) (the above from Abcam, UK), mouse SLAMF6 (PA5-87823), NKG2D (PA5-102038) (the above from Thermofisher, USA), α-SMA (Sigma Aldrich, A5228), CCL2 (Invitrogen, MA5-17040), and CD155(PVR) (Biolegend, 337601), HA (Biolegend, USA), Strep-HRP(horse-radish peroxidase), StrepMAB-HRP (IBA, USA), AFP (FineTest, FNab00203) were reacted at 4°C for 15 hours. The next day, secondary antibodies were reacted, and development was performed on X-ray film using ECL (Pierce, USA). […]
After 24 hours, vehicle DMSO, drug ST-1-025, or ST-5-002 was treated at the given concentrations. […] (f) After treating NK92-EV or NK92-TM4SF5 cells with DMSO or drugs ST-2-001 (1 nM), ST-3-005 (10 nM or 1 µM), ST-5-001, or ST-5-002 (100 nM or 1 µM) for 24 hours, the expression of SLAMF7 expressed on the cell surface was analyzed through immunostaining using flow cytometry. The expression level of SLAMF7 was confirmed by adding a SLAMF7 antibody to bind with SLAMF7 and then measuring the fluorescence linked to the SLAMF7 antibody using flow cytometry. […]

COc1ccc(-c2cc(-c3ccc(N)cc3)no2)cc1 [ST-1-025, 4-(5-(4-methoxyphenyl)isoxazole-3-yl)aniline]
growth or proliferation [1]: decreased

COc1cccc(-c2cc(-c3ccc(NC(C)=O)cc3)no2)c1 [ST-3-001, N-(4-(5-(3-methoxyphenyl)isoxazole-3-yl)phenyl)acetamide]
expression level of SLAMF7 (WCL) [2]: did not show a recovery

Cc1ccc(C(=O)Nc2ccc(-c3cc(-c4ccc(O)cc4)no3)cc2)cc1 [ST-5-002, N-(4-(3-(4-hydroxyphenyl)isoxazole-5-yl)phenyl)-4-methylbenzamide]
SLAMF7 expression level ([2]; SNU761-TM4SF5 (FIG. 13d)): less lowered or remained high
SLAMF7 expression decreased due to TM4SF5 ([2]; SNU761 with FLAG-SLAMF7 and HA-TM4SF5, given concentrations, 24 hours (FIG. 15d)): showed a pattern of recovery
expression level of SLAMF7 (WCL) [2]: increasing again

Cc1ccc(S(=O)(=O)Nc2ccc(C(=O)/C=C/c3ccc(O)cc3)cc2)cc1 [TSAHC, 4'-(p-toluenesulfonylamino)-4-hydroxychalcone, reference compound]
growth or proliferation [1]: decreased
